Measurements from US20250092383A1, “COMPOUNDS AND METHODS FOR FBXO22-MEDIATED PROTEIN DEGRADATION” (Northwestern University, priority 2023, published 2025).

Tests used:
FKBP12 and FBXO22 [1] = biological target: T1, FKBP12 and FBXO22 (Homo sapiens, UniProt P62942+Q8NEZ5, C227A/C228A); assay: Coimmunoprecipitation of HA-FBXO22 with FLAG-FKBP12 (ternary complex); type: cell-based; settings: HEK293T cells, with MG132
T1 construct: expressed in transfected cells; host or cells: HEK293T
Text: (§1) FIGS. 4A-4C show 22-SLF induces the formation of a ternary complex involving 22-SLF, FKBP12 and FBXO22. […] The bar graph represents quantification of the immunoprecipitated HA-FBXO22 protein content compared to the HA-FBXO22 protein in whole cell lysates (WCL). Data are presented as the mean values (n=2 biological independent samples). […] Data are presented as the mean values (n=2 biological independent samples).
(§2) The formation of ternary complex by degraders with their target protein and E3 ligase drives the subsequent target degradation.

FKBP12 and FBXO22 [2] = biological target: T2, FKBP12 and FBXO22 (Homo sapiens, UniProt P62942+Q8NEZ5); assay: as above; type: cell-based; settings: HEK293T cells, with MG132
T2 construct: expressed in transfected cells; host or cells: HEK293T
T2 sequence (P62942 2-108): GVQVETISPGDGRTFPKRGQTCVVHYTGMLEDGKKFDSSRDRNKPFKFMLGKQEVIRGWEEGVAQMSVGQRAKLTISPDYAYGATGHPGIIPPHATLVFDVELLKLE
T2 sequence (Q8NEZ5 whole entry): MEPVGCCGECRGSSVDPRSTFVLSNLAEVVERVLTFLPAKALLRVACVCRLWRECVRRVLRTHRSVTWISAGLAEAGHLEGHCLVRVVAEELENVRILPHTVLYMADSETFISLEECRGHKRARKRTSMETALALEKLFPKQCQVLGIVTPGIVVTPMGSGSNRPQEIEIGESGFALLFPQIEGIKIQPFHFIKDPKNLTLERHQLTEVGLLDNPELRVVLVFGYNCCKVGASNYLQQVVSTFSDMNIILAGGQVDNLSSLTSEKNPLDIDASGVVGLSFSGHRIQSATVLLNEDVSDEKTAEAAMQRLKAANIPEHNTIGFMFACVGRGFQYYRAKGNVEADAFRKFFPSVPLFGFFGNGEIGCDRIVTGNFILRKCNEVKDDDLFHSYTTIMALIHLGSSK
T2 sequence (P63208 whole entry partner): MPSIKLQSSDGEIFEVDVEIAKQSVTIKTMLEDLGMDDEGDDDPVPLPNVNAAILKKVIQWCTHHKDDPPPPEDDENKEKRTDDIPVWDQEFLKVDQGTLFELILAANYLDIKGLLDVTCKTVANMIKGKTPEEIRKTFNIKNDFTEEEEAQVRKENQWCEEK
Text: as §1, §2

FKBP12 and FBXO22 [3] = assay: as above; type: cell-based, human; settings: HEK293T cells, with MG132
Text: as §1, §2

[4] = biological target: T3, FKBP12 interactome (SKP1-CUL1-RBX1 E3 complex) (Homo sapiens, UniProt P62942+Q8NEZ5, C227A/C228A); assay: FKBP12-directed enrichment proteomic analysis; type: cell-based; settings: 22-SLF (2 μM) and MG132 (5 μM)
T3 construct: expressed in transfected cells; host or cells: HEK293T (FLAG-FKBP12 and HA-FBXO22 expressed; SKP1, CUL1 and RBX1 are the cells' own)
T3 sequence (P62942 2-108): as the sequence (P62942 2-108) above
T3 sequence (Q8NEZ5 whole entry C227A/C228A): as the sequence (Q8NEZ5 whole entry) above, with C227A, C228A counted along it
T3 sequence (P63208 whole entry partner): as the sequence (P63208 whole entry partner) above
Text: as §1
(§3) To comprehensively assess the impact of 22-SLF on the FKBP12 interactome landscape, an enrichment proteomic approach was employed to identify proteins co-immunoprecipitating with FLAG-FKBP12 from HEK293T cells treated with 22-SLF. […] Furthermore, another enrichment proteomic study was conducted comparing FKBP12 interactome landscape in HEK293T cells expressing FBXO22 wildtype and C227AC228A double mutant. […] Collectively, these findings indicate that 22-SLF effectively drives the formation of a ternary complex involving 22-SLF, FBXO22 and FKBP12 by engaging C227/228 in FBXO22, thereby facilitating the subsequent degradation of FKBP12.

[5] = biological target: T4, FKBP12 interactome (SKP1-CUL1-RBX1 E3 complex) (Homo sapiens, UniProt P62942+Q8NEZ5); assay: FKBP12-directed enrichment proteomic analysis; type: cell-based; settings: 22-SLF (2 μM) and MG132 (5 μM)
T4 construct: expressed in transfected cells; host or cells: HEK293T (FLAG-FKBP12 and HA-FBXO22 expressed; SKP1, CUL1 and RBX1 are the cells' own)
T4 sequence (P62942 2-108): as the sequence (P62942 2-108) above
T4 sequence (Q8NEZ5 whole entry): as the sequence (Q8NEZ5 whole entry) above
T4 sequence (P63208 whole entry partner): as the sequence (P63208 whole entry partner) above
Text: as §1, §3

T1 sequence (P62942 2-108): as the sequence (P62942 2-108) above
T1 sequence (Q8NEZ5 whole entry C227A/C228A): as the sequence (Q8NEZ5 whole entry) above, with C227A, C228A counted along it
T1 sequence (P63208 whole entry partner): as the sequence (P63208 whole entry partner) above

**Q.** Which “Ternary complex assembly, FBXO22 C227AC228A double mutant” value (FKBP12 and FBXO22 [1]) does the source give for `CCC(C)(C)C(=O)C(=O)N1CCCC[C@H]1C(=O)O[C@H](CCc1ccc(OC)c(OC)c1)c1cccc(OCC(=O)NCCCOCCOCCOCCCN(C(=O)CCl)C(C(=O)NCc2ccccc2)c2nc3ccccc3s2)c1` (stereo partly drawn) [22-SLF] here?
**A.** Its value is “nearly completely abolished”.

**Q.** And the “Ternary complex formation, FBXO22 wild type” value (FKBP12 and FBXO22 [2])?
**A.** The value was “HA-FBXO22 co-immunoprecipitated with FLAG-FKBP12”.

**Q.** And the “Ternary complex assembly, FBXO22 C227A or C228A single mutant” value (FKBP12 and FBXO22 [3])?
**A.** The value was “partially hindered”.

**Q.** And the “FBXO22 complex enrichment, FBXO22 C227AC228A-expressing cells” value [4]?
**A.** The value was “enrichment was absent”.

**Q.** What about the “FBXO22 complex enrichment, FBXO22 wildtype-expressing cells” value [5] of the same compound?
**A.** The value was “enrichment of the FBXO22 complex”.

**Q.** And the “Proteins co-immunoprecipitating with FLAG-FKBP12” value ([5]; HEK293T cells)?
**A.** The value was “FBXO22 itself, SKP1, CUL1, and NEDD8, as proteins recruited by 22-SLF”.
